Assay results from US4472428A, “Halogenated prostacyclins pharmaceutical use thereof and hydroxy intermediates therefore” (Teijin Limited, priority 1980, dated 1984).
≈ marks a conversion by molar mass, not a printed value. Counter-ions that a name gives are not always drawn. Like-named read-outs stand apart in the source and are kept apart here.

Tests used:
blood pressure [1] = test: hypotensive activity, intravenous injection in anesthetized rats; format: in vivo, rats (male wister); conditions: for ED20: Rattus norvegicus, iv, anesthetized rats, read-out: P-ED20 (dosage causing a 20% lowering of the mean blood pressure); for blood pressure lowering activity (in words): general statement
Experimental: (§1) Measurement of the hypotensive activity:
(§2) The actions of the prostacyclin derivatives of the invention on the blood pressure and heart rate of rats were examined by intravenous injection under anesthesia.
(§3) Male wister rats weighing about 250 g were used. Urethane (500 mg/kg) and α-chloralose (100 mg/kg) were intraperitoneally administered to the rats. The rats were anesthetized and fixed in place.
(§4) Each of the test compounds was dissolved in a small amount of ethanol and diluted with 0.05M Tris buffer saline (pH 9) to adjust the final ethanol concentration to not more than 5%. The solution was intravenously injected into the rats through a catheter inserted into the femoral vein.
(§5) The blood pressure of the rats was measured by a pressure transducer through a catheter inserted into the carotid artery of the rats. The heart rate was determined from the blood pressure pulse.
(§6) The action of the test compound on the blood pressure was expressed as the dosage (P-ED20, μg/kg) of the test compound which caused a 20% lowering of the mean blood pressure before administration of the compound. The action of the test compound on the heart rate was expressed as the dosage (H-ED10, μg/kg) of the test compound which caused a 10% increase of the heart rate from the heart rate before administration of the test compound.

heart rate = test: action on heart rate, intravenous injection in anesthetized rats; format: in vivo, rats (male wister); conditions: Rattus norvegicus, i.v., read-out: H-ED10 (dosage causing a 10% increase of the heart rate)
Experimental: as §1, §2, §3, §4, §5, §6

platelet aggregation [2] = test: in vitro inhibitory activity of platelet aggregation (ADP-induced, rabbit PRP); format: cell-based, rabbit (Japanese domestic white male); conditions: for IC50: Oryctolagus cuniculus, Platelet, rabbit PRP, 10 μM ADP, 37° C., read-out: IC50 (minimum concentration which inhibited more than 50% of platelet aggregation); for platelet aggregation inhibiting activity (in words): general statement
Experimental: (1) in vitro inhibitory activity of platelet aggregation:
The in vitro platelet aggregation inhibiting activities of the compounds of the invention were examined by using rabbits. Blood was withdrawn from the ear vein of Japanese domestic white male rabbits weighing 2.5 to 3.5 kg. A mixture of a 3.8% trisodium citrate solution and the blood in a ratio of 1:9 was centrifuged at a speed of 1000 rpm for 10 minutes. The upper layer was separated as platelet-rich plasma (PRP). The lower layer was further centrifuged at a speed of 2800 rpm for 10 minutes. The upper layer was separated as platelet-poor plasma (PPP). The number of platelets was adjusted to 6×10^5 /μl to 7×10^5 /μl by diluting the PRP with PPP. 25 microliters of the test compounds prepared as shown below was added in an amount of 25 to 250 microliters of PRP after the adjustment, and the mixture was pre-incubated at 37° C. for 2 minutes, and then 10 μM (final) of ADP was added. By using an aggregometer, changes in transmission were recorded.
The drug was dissolved in ethanol to a concentration of 10 mg/ml. When its activity was measured, it was used after being diluted with phosphate buffer (pH 7.4). Furthermore, after dilution with the buffer, the drug was left to stand at 0° C. for 4 hours, and the activity of the drug was similarly measured.
The rate of inhibition of platelet aggregation was determined from the following equation.
Inhibition rate (%)=(1-T/To)×100
To : the transmittance of the system containing the phosphate buffer,
T: the transmittance of the system to which the test drug was added.
The minimum concentration of the drug which inhibited more than 50% of platelet aggregation was shown as an IC50 value.

[3] = tested on: blood pressure / platelet aggregation; test: ratio of the blood pressure lowering activity and the platelet aggregation inhibiting activity; design: species or system rats (blood pressure); rabbits (platelets); conditions: for P-ED20 / platelet IC50: P-ED20 rats i.v., IC50 rabbit platelets in vitro; for selectivity of pharmacological activity (in words): compared with PGI2
Experimental: (2) From the results obtained in Examples 100 and 101, the ratio of the blood pressure lowering activity and the platelet aggregation inhibiting activity was calculated. The result is shown in Table 3 together with the ratio obtained with PGI2.

[4] = cited from earlier work
[5] = tested on: platelet aggregation / blood pressure; conditions: cited from earlier work
[6] = tested on: 15-position dehydrogenase; conditions: cited from earlier work
[7] = chemical stability at pH 7.4 (half period from UV absorption at 210 nm); format: physicochemical; conditions: pH 7.4 phosphate buffer, room temperature, UV 210 nm
Experimental: Test for the chemical stability of (5E)-5-chloro-PGI2 sodium salt (No. 686) and (5Z)-5-chloro-PGI2 sodium salt (No. 5Z-686):
6.54 ml of 0.02M potassium dihydrogen phosphate and 29.0 ml of 0.01M disodium hydrogen phosphate were mixed, and the pH of the mixture was measured by a pH meter.
The solution of (5E)-5-chloro-PGI2 sodium salt obtained in Example 35 and the solution of (5Z)-5-chloro-PGI2 sodium salt obtained in Example 36 were each added to the above buffer mixture, and their UV spectra were periodically recorded at room temperature. From the absorption values at 210 nm, the half periods of these salts were determined.

Lewis lung carcinoma = test: activity of inhibiting metastasis of a malignant tumor; format: in vivo, mice
Experimental: Measurement of the activity of inhibiting metastasis of a malignant tumor:
Mice were used as experimental animals. Lewis lung carcinoma (4×10^5 cells/100 μl) was transplanted into the foot pad of each mouse. For seven days from the 5th to the 11th day after the transplantation, the compound No. 686 of the invention was intraperitoneally administered to the mouse once a day. On the 12th day, the foot at the primary nest was cut off, and the weight of the cut foot (primary nest portion) was measured. On the 20th day after the transplantation, the number of nests which metastasized to the lungs was measured.

blood pressure [8] = test: action on blood pressure, intraduodenal administration to conscious rats; format: in vivo, rats (male SD); conditions: for mean blood pressure: N 4
Experimental: The prostocyclin derivatives of the invention were intraduodenally administered to conscious rats, and their action on the blood pressure was examined.
Male SD rats weighing about 200 g were used as experimental animals. These rats had been fasted for 16 hours before the start of the experiment. A catheter was inserted into the femoral artery of the rats under ether anesthesia, and then the rats were restrained within a Bollman cage. After more than 1 hour from awakening, each of the test compounds was intraduodenally administered.
The test compound was dissolved in a small amount of ethanol, and then diluted with 0.05M Tris buffer (pH 9) to adjust the final concentration of ethanol to not more than 5%. The mean blood pressure was measured by meaans of a pressure transducer through the catheter inserted into the femoral artery.

platelet aggregation [9] = test: extra vivo inhibitory activity of platelet aggregation after intraduodenal administration; format: in vivo, SD strain rats; conditions: for inhibition (%) (rate of platelet aggregation inhibition): 3 mg/kg i.d., blood drawn 30 min after administration, ADP, N 4
Experimental: extra vivo inhibitory activity of platelet aggregation:
The extra vivo platelet aggregation inhibitory activity of the prostacyclin derivatives of the invention were measured by using […]. The test compound of the invention in ethanol was diluted with 0.05M Tris buffer (pH 9.0) and as a control, only the 0.05M Tris buffer solution was used. These solutions were each intraduodenally administered in a dose of 1 ml/kg to SD strain rats weighing about 200 g which had been fasted for 16 hours. Thirty minutes after the administration, blood was drawn off from the aorta using trisodium citrate so that the ratio of the blood to 3.8% trisodium citrate was 9:1. The blood was centrifuged at a speed of 800 rpm for 10 minutes. The upper layer was separated as platelet-rich plasma (PRP). The lower layer was further centrifuged at a speed of 2800 rpm for 10 minutes. The upper layer was separated as platelet poor plasma (PPP). 250 microliters of the resulting PRP was taken into an aggregometer cuvette, and incubated at 37° C. for 2 minutes. Then, 25 microliters of a 1.25 μM ADP disodium solution adjusted by dissolving with 0.1M tris-HCl buffer (pH 8.0) was added. The aggregation curve was recorded for 3 minutes. The maximum degree of aggregation of platelets within this time period was read, and the rate of inhibition of platelet aggregation was calculated from the following equation.
Rate of platelet aggregation inhibition (%)=(1-(TD /TC)×100
TC : the transmittance of the control glroup (to which only the 0.05M Tris buffer solution was administered),
TD : the transmittance of the drug administered group.

[10] = 4 hr standing at 0° C. after dilution with phosphate buffer pH 7.4
[11] = 10 μg/kg/day i.p., day 5 to 11, 5 animals

Compound: CCCCC[C@H](O)/C=C/[C@@H]1[C@H]2C/C(=C/CCCC(=O)O)O[C@H]2C[C@H]1O [PGI2, Prostaglandin I2, reference compound]
- ED20 (blood pressure [1]): 0.02 µg/kg
- ED10 (heart rate): 0.04 µg/kg
- IC50 (platelet aggregation [2]; 0 hr): 0.0047 µg/mL (≈ 0.0133 µM)
- IC50 (platelet aggregation [2]; [10]): 0.56 µg/mL (≈ 1.59 µM)
- P-ED20 / platelet IC50 [3]: 4.3
- half period of its activity at physiological pH [4]: only about several minutes
- doses required for platelet aggregation inhibiting action and antihypertensive action [5]: almost equal to each other
- metabolism in vivo [6]: rapidly metabolized by a 15-position dehydrogenase

Compound: CCCCCC(O)C=CC1C(O)CC2OC(=C(Cl)CCCC(=O)O)CC21 (centres unmarked) [Compound 686, (5E)-5-chloro-PGI2, sodium salt]
- half-life [7]: ~22 days
- ED20 (blood pressure [1]): 2.4 µg/kg
- ED10 (heart rate): > 10 µg/kg
- IC50 (platelet aggregation [2]; 0 hr): 0.14 µg/mL
- IC50 (platelet aggregation [2]; [10]): 0.12 µg/mL
- P-ED20 / platelet IC50 [3]: 17.1
- selectivity of pharmacological activity (in words) [3]: higher selectivity of pharmacological activity than PGI2
- Number of nests which metastasized to the lungs (measured on the 20th day) (Lewis lung carcinoma; [11]): 25.6 ± 12.0
- Weight of the primary next portion measured on the 12th day (Lewis lung carcinoma; [11]): 2.17 ± 0.86 g
- metastasis of the primary nest to the lungs (in words) (Lewis lung carcinoma; Table 6): inhibited metastasis of the primary nest to the lungs
- primary nest (in words) (Lewis lung carcinoma; Table 6): reduced the primary nest

Compound: CCCCCC(O)C=CC1C(O)CC2OC(=CCCCC(=O)O)CC21 (centres unmarked) [Sodium salt of PGI2, reference compound]
- mean blood pressure (blood pressure [8]; 3 mg/kg i.d., 0 min): 109 ± 1
- mean blood pressure (blood pressure [8]; 3 mg/kg i.d., 5 min): 84 ± 3
- mean blood pressure (blood pressure [8]; 3 mg/kg i.d., 10 min): 101 ± 4
- mean blood pressure (blood pressure [8]; 3 mg/kg i.d., 15 min): 110 ± 2
- mean blood pressure (blood pressure [8]; 3 mg/kg i.d., 30 min): 109 ± 1
- mean blood pressure (blood pressure [8]; 3 mg/kg i.d., 60 min): 107 ± 2
- mean blood pressure (blood pressure [8]; 3 mg/kg i.d., 120 min): 103 ± 2
- blood pressure lowering activity (in words) (blood pressure [8]; Table 4, i.d., conscious rats): stronger blood pressure lowering activity than the compound No. 688 of the present invention (especially five minutes later)
- inhibition (%) (rate of platelet aggregation inhibition) (platelet aggregation [9]): 56.5 ± 11.3%

Compound: CCCCCC(O)C=CC1C(O)CC2OC(=CCCCC(=O)OC)C(F)C21 (centres unmarked) [Compound 637, 7-fluoro-PGI2 methyl ester]
- IC50 (platelet aggregation [2]; 0 hr): 0.34 µg/mL (≈ 0.884 µM)
- IC50 (platelet aggregation [2]; [10]): 0.38 µg/mL (≈ 0.988 µM)

Compound: CCCCCC(O)C=CC1C(O)CC2OC(=CCCCC(=O)O)C(F)C21 (centres unmarked) [Compound 688, sodium salt of 7-fluoro-PGI2]
- ED20 (blood pressure [1]): 0.7 µg/kg
- ED10 (heart rate): 1.9 µg/kg
- IC50 (platelet aggregation [2]; 0 hr): 0.05 µg/mL
- IC50 (platelet aggregation [2]; [10]): 0.05 µg/mL
- P-ED20 / platelet IC50 [3]: 14.0
- selectivity of pharmacological activity (in words) [3]: higher selectivity of pharmacological activity than PGI2
- mean blood pressure (blood pressure [8]; 1 mg/kg i.d., 0 min): 102 ± 4
- mean blood pressure (blood pressure [8]; 1 mg/kg i.d., 5 min): 101 ± 4
- mean blood pressure (blood pressure [8]; 1 mg/kg i.d., 10 min): 97 ± 3
- mean blood pressure (blood pressure [8]; 1 mg/kg i.d., 15 min): 99 ± 4
- mean blood pressure (blood pressure [8]; 1 mg/kg i.d., 30 min): 104 ± 3
- mean blood pressure (blood pressure [8]; 1 mg/kg i.d., 60 min): 100 ± 4
- mean blood pressure (blood pressure [8]; 1 mg/kg i.d., 120 min): 100 ± 2
- mean blood pressure (blood pressure [8]; 3 mg/kg i.d., 0 min): 104 ± 2
- mean blood pressure (blood pressure [8]; 3 mg/kg i.d., 5 min): 100 ± 3
- mean blood pressure (blood pressure [8]; 3 mg/kg i.d., 10 min): 100 ± 3
- mean blood pressure (blood pressure [8]; 3 mg/kg i.d., 15 min): 103 ± 2
- mean blood pressure (blood pressure [8]; 3 mg/kg i.d., 30 min): 102 ± 3
- mean blood pressure (blood pressure [8]; 3 mg/kg i.d., 60 min): 102 ± 2
- mean blood pressure (blood pressure [8]; 3 mg/kg i.d., 120 min): 100 ± 2
- inhibition (%) (rate of platelet aggregation inhibition) (platelet aggregation [9]): 87.5 ± 5.8%
- platelet aggregation inhibiting activity (in words) (platelet aggregation [9]; Table 5, 3 mg/kg i.d., rats): stronger platelet aggregating activity than the sodium salt of PGI2

Compound: CCCCCC(O)C=CC1C(O)CC2OC(=C(Cl)CCCC(=O)OC)CC21 (centres unmarked) [Compound 636, (5E)-5-chloro-PGI2 methyl ester]
- IC50 (platelet aggregation [2]; 0 hr): 0.62 µg/mL (≈ 1.55 µM)
- IC50 (platelet aggregation [2]; [10]): 0.51 µg/mL (≈ 1.27 µM)

Compound: CCCCCC(O)C=CC1C(O)CC2OC(=CCCCC(=O)O)C(F)C21 (centres unmarked) [Compound 501, 7-Fluoro-PGI2]
- blood pressure lowering activity (in words) (blood pressure [1]): low blood pressure lowering activity
- platelet aggregation inhibiting activity (in words) (platelet aggregation [2]): high platelet aggregation inhibiting activity

Compound: CCCCCC(O)C=CC1C(O)CC2OC(=C(Cl)CCCC(=O)O)CC21 (centres unmarked) [Compound 5Z-686, (5Z)-5-chloro-PGI2, sodium salt]
- half period [7]: more than 1 month

Compound: 5-Chloro-PGI2 [Compound 500]
- blood pressure lowering activity (in words) (blood pressure [1]): low blood pressure lowering activity
- platelet aggregation inhibiting activity (in words) (platelet aggregation [2]): high platelet aggregation inhibiting activity
